# Results reported in PubChem BioAssay (NCI).
# Several values for one entry are separate records, joined by “and”; a condition that tells them apart may be missing. Identical values can stand only once.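 How tested: cells in 96-well plates exposed to compound for 48 hours at five concentrations. GI50 is the concentration that inhibits growth by half. At the TGI there is no net growth.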 Where a SMILES comes first, the peptide text is derived from it.
# Experiments:
# Assay in all cases: NCI-60 cell line screen, 48 h
# [1] = test system: HL-60(TB) leukemia
# [2] = test system: LOX IMVI melanoma
# [3] = test system: SK-MEL-28 melanoma
# [4] = test system: SK-MEL-5 melanoma
# [5] = test system: UACC-257 melanoma
# [6] = test system: EKVX NSCLC
# [7] = test system: K-562 leukemia
# [8] = test system: UACC-62 melanoma
# [9] = test system: SNB-19 CNS
# [10] = test system: NCI-H226 lung
Structure (SMILES),GI50 [1],TGI [1] [µM],GI50 [2],TGI [2] [µM],GI50 [3],TGI [3] [µM],GI50 [4],TGI [4] [µM],GI50 [5],TGI [5] [µM],GI50 [6] [µM],TGI [6] [µM],GI50 [7] [µM],TGI [7] [µM],GI50 [8],TGI [8] [µM],TGI [9] [µM],TGI [10] [µM],GI50 [10] [µM],GI50 [9]
Cc1cc(N2CCCC2)nc(NCc2cc(Nc3ccnc4cc(Cl)ccc34)ccc2F)n1,1990 nM,4.49,1120 nM,2.48,1780 nM,3.48,1010 nM,2.2,1.31 µM,2.66,–,–,–,–,–,–,–,–,–,–
OCCNCCCOc1ccc2ncnc(Nc3ccc(Oc4cccc(C(F)(F)F)c4)c(Cl)c3)c2c1,–,–,1710 nM,3.15,1750 nM,3.21,–,–,–,–,1.24,2.76,1.79,4.48,1790 nM,3.31,–,–,–,–
O=C(O)CCc1c2ccc(=O)c(O)c-2oc2c(O)c(O)ccc12,–,> 100,–,47.9,–,> 100,–,> 100,–,> 100,–,> 100,–,55.2,–,> 100,> 100,–,–,–
CN[C@@H](C)[C@H](N)c1ccccc1,–,–,–,> 100,–,> 100,–,> 100,–,> 100,–,> 100,–,> 100,–,> 100,–,> 100,–,–
Cc1ccn2c(CCc3nnc4cc(C)ccn34)nnc2c1,–,0.623,–,–,–,> 100,–,> 100,–,> 100,–,> 100,–,–,–,> 100,> 100,> 100,–,–
CCC(C)C1NC(=O)C2CCCN2C(=O)CNC(=O)C(C)NC(=O)C(Cc2ccccc2)NC(=O)C(C(C)C)NC1=O (centres undefined) (cyclo(GPIVFA); configuration not given here),–,–,–,> 100,–,> 100,–,> 100,–,> 100,–,> 100,–,–,–,> 100,> 100,> 100,–,–
CC(=O)C1=C(C)N(C)C2(O)C=CC(=O)C3=C(O)c4ccccc4C(=O)C312 (centres undefined),> 100000 nM,> 100,–,–,19400 nM,47.3,2510 nM,9.02,5.73 µM,> 100,15.3,33.4,3.14,> 100,3890 nM,14,27,31.9,16,2.18 µM
C/C(=N\NC(=S)N1CCCCCCCCCCCC1)c1ccccn1,–,> 100,–,1.23,–,2.02,–,0.636,–,0.414,–,0.432,–,0.121,–,–,2.03,1.02,–,–
COc1ccc(-c2cc(-c3cc(Cl)cc(Br)c3O)[nH]c(=O)n2)cc1,–,48.5,–,33.2,–,44.7,–,–,–,42.2,–,27.3,–,41.7,–,29.4,57.2,33.4,–,–
O=S(=O)([O-])[O-].[Cl-].[NH2-].[NH2-].[NH2-].[NH2-].[Ru+3].c1ccncc1,–,> 100,–,> 100,–,> 100,–,> 100,–,> 100,–,> 100,–,> 100,–,> 100,–,> 100,–,–
O=S1(=O)CCCS(=O)(=O)C(c2ccccc2)=C1c1ccccc1,–,44.6,–,> 100,–,> 100,–,> 100,–,> 100,–,> 100,–,> 100,–,> 100,–,> 100,–,–
COC1C(OC(=O)/C=C/C=C/C=C/C=C\C(=O)O)CCC2(CO2)C1C1(C)OC1CC=C(C)C (centres undefined),–,–,> 200000 nM,> 200,> 200000 nM,> 200,> 200000 nM,> 200,–,–,> 200,> 200,> 200,> 200,> 200000 nM,> 200,> 200,> 200,> 200,> 200 µM
COc1ccc(/C=c2/sc3n(c2=O)NC2(CCC(C)CC2)NN=3)cc1 (centres undefined),–,–,–,> 100,–,> 100,–,> 100,–,–,–,> 100,–,> 100,–,> 100,> 100,> 100,–,–
COC(=O)/C=C1/SC(N2N=C(c3cccs3)CC2c2ccc(F)cc2)=NC1=O (centres undefined),2880 nM,6.35,1610 nM,3.06,2610 nM,6,1780 nM,3.36,2.39 µM,6.83,3.49,23.6,–,–,1580 nM,3.74,6.32,6.32,2.24,2.51 µM
O=C1Nc2ccccc2/C1=C\c1nc(C2CCN(S(=O)(=O)c3ccc(F)cc3)CC2)n2ccccc12,> 100000 nM,> 100,2580 nM,> 100,> 100000 nM,> 100,–,–,–,–,4.87,> 100,> 100,> 100,–,–,33.3,21.1,2.32,3.99 µM
CC1=C(C(=O)Nc2ccc([N+](=O)[O-])cc2)C(c2ccc3c(c2)OCO3)C(C(=O)Nc2ccc([N+](=O)[O-])cc2)=C(C)N1,–,–,–,–,–,> 100,–,–,–,50.7,–,> 100,–,> 100,–,59.4,> 100,55.8,–,–
COc1cc(-c2cc(/C=C/C(=O)c3ccc(Cl)c(Cl)c3)[nH]n2)cc(OC)c1OC,7180 nM,36.7,3390 nM,16.4,18100 nM,66,13400 nM,46.9,16.3 µM,74,–,–,4.96,64.4,18800 nM,> 100,> 100,> 100,18.6,9.83 µM
O=[N+]([O-])c1cc(Cl)ccc1OCc1ccccc1,–,> 100,–,> 100,–,> 100,–,70.5,–,> 100,–,> 100,–,> 100,–,> 100,–,–,–,–
CSc1nc(NC2OC(COC(C)=O)C(OC(C)=O)C(OC(C)=O)C2OC(C)=O)c(-c2csc(N)n2)c(=O)n1C (centres undefined),–,> 100,–,> 100,–,> 100,–,> 100,–,> 100,–,–,–,> 100,–,89.4,> 100,81.7,–,–

Structure (SMILES),GI50 [1],TGI [1] [µM],GI50 [2],TGI [2] [µM],GI50 [3],TGI [3] [µM],GI50 [4],TGI [4] [µM],GI50 [5],TGI [5] [µM],GI50 [6] [µM],TGI [6] [µM],GI50 [7] [µM],TGI [7] [µM],GI50 [8],TGI [8] [µM],TGI [9] [µM],TGI [10] [µM],GI50 [10] [µM],GI50 [9]
COc1ccc2c(Cl)cc(NC(=O)Nc3c(C)cccc3C)nc2c1,> 100000 nM,> 100,17300 nM,> 100,31000 nM,> 100,18100 nM,> 100,20 µM,> 100,–,–,60.7,> 100,64300 nM,> 100,> 100,6.14,2.29,72.7 µM
COc1ccc2c(c1)[n+]([O-])c(-c1ccc(C)cc1)c(N)[n+]2[O-],–,> 100,–,–,–,> 100,–,> 100,–,62,–,> 100,–,> 100,–,–,> 100,> 100,–,–
Oc1cccc(/C=N/Nc2nnc(N/N=C/c3cccc(O)c3)c3ccccc23)c1,–,–,–,34.1,–,60.2,–,8.86,–,> 100,–,43.6,–,47.6,–,30.2,> 100,30.7,–,–
CNS(=O)(=O)NN(C)S(=O)(=O)c1ccc2ccccc2c1,–,> 100,–,> 100,–,–,–,> 100,–,> 100,–,> 100,–,> 100,–,> 100,–,> 100,–,–
CC1C[C@]2(C[C@@H](C)C(=O)O2)O[C@@H]2CC3(C)[C@@H]4CCC5C(C)(C)OC(=O)C[C@H]6OO[C@]4(CC[C@]3(C)C12)CC56O (some centres undefined),–,> 100,–,> 100,–,> 100,–,> 100,–,> 100,–,–,–,–,–,> 100,> 100,> 100,–,–
COc1ccc(/C=C2\CN(Cc3cn(CCNc4ccnc5cc(Cl)ccc45)nn3)C/C(=C\c3ccc(OC)c(OC)c3)C2=O)cc1OC,2420 nM,9.37,2100 nM,4.82,2290 nM,5.97,1720 nM,3.75,4.8 µM,23.1,–,–,3.21,> 100,2140 nM,5.39,> 100,21,4.04,3.59 µM
Cc1ccc(NC(=S)SCCC(=O)O)cc1,–,> 100,–,> 100,–,> 100,–,–,–,> 100,–,> 100,–,> 100,–,–,> 100,> 100,–,–
COc1cc2c(cc1OC)NC(=O)NC(Cc1ccc3c(c1)OCO3)CC2 (centres undefined),–,> 100,–,> 100,–,> 100,–,> 100,–,> 100,–,> 100,–,> 100,–,> 100,> 100,–,–,–
COc1c(-c2ccc(O)c(O)c2)oc2c(O)c(O)cc(O)c2c1=O,–,–,–,29.4,–,> 100,–,> 100,–,> 100,–,> 100,–,46.4,–,> 100,> 100,> 100,–,–
Cc1cc(C(=O)NC(CCC(=O)O)C(=O)O)sc1CCC1CNc2nc(N)[nH]c(=O)c2C1 (centres undefined),36.6 nM and 55.8 nM,> 100,29.4 nM and 36.5 nM,> 100,43.5 nM and 64.3 nM,> 100,56 nM and 279 nM,> 100,0.0722 µM and 0.228 µM,> 100,–,–,< 0.01,> 100,49 nM and 55.7 nM,> 100,> 100,> 100,< 0.0128,0.0783 µM and 0.606 µM
C=CC1(NS(=O)(=O)c2ccc(C)cc2)CCC(C(C)(C)C)CC1 (centres undefined),–,> 100,–,–,–,> 100,–,> 100,–,> 100,–,–,–,> 100,–,> 100,> 100,> 100,–,–
Cc1cccc(N2C(=O)C(=O)C(c3nc4ccccc4s3)/C(=N/NC(=S)NN)C2=O)c1C (centres undefined),–,–,–,> 100,–,> 100,–,> 100,–,> 100,–,> 100,–,> 100,–,> 100,> 100,> 100,–,–
CC1=C(Cl)C=CP(=O)(OC(C)C)C1 (centres undefined),–,> 100,–,–,–,> 100,–,> 100,–,> 100,–,> 100,–,> 100,–,> 100,–,–,–,–
CCOC(=O)[C@H]1Nc2ccc([N+](=O)[O-])cc2C2c3ccccc3CC21 (some centres undefined),–,–,–,33.2,–,31.9,–,30.7,–,40.2,–,–,–,52.2,–,30.6,> 100,55.1,–,–
O=[n+]1c2ccccc2n([O-])c2cc(Cl)ccc21,2070 nM,4.47,2830 nM,11.9,16400 nM,97.4,9110 nM,21.6,5.49 µM,18.1,–,–,3.02,12.8,6170 nM,23.8,39.5,25.6,7.32,9.46 µM
CC(/C=C/c1ccccc1)=N\NC(N)=S,–,41.7,–,> 100,–,> 100,–,> 100,–,> 100,–,> 100,–,–,–,–,79.2,> 100,–,–
NCCOc1ccccc1/C=C1\c2ccccc2-c2ccc([N+](=O)[O-])cc21,1540 nM,3.07,1330 nM,2.66,1750 nM,3.18,1800 nM,3.22,1.7 µM,3.31,1.55,2.99,–,–,1540 nM,2.92,–,3.48,1.73,–
Clc1ccc2nc(-c3ccccc3)nc(Cl)c2c1,–,31.1,–,–,–,> 100,–,> 100,–,> 100,–,> 100,–,> 100,–,> 100,> 100,> 100,–,–
CCCCN(CCCC)CCC(O)c1cc2c(Cl)cc(Cl)cc2c2cc(C(F)(F)F)ccc12 (centres undefined),–,21.8,–,21.9,–,33.1,–,–,–,29.6,–,29.1,–,22.4,–,29.9,40.6,–,–,–
